The values that follow come from PubChem BioAssay (NCI).

Some test systems named below: MDA-MB-231 breast; 786-0 renal; SK-MEL-2 melanoma; SNB-19 CNS; RPMI-8226 leukemia; SK-MEL-28 melanoma; HL-60(TB) leukemia; NCI-H460 lung; RXF 393 renal; DU-145 prostate.
Test in all cases: NCI-60 cell line screen, 48 h

Where “and” joins values, the source holds several entries; their conditions need not be identical. Identical values can stand only once.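 1) Cells in 96-well plates. 2) Compound, 48 h, 5 concentrations. 3) Linear interpolation between surrounding doses. 4) Unreached endpoint = highest concentration. GI50: concentration for 50% inhibition of growth. TGI marks complete inhibition of growth.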

As for `Nc1nc2c(nnn2C2OC(CO)C(O)C2O)c(=O)[nH]1` (stereo not drawn), the GI50 in the assay on MDA-MB-231 breast was 4.48 µM; in the assay with 786-0 renal it was 0.941 µM; with SK-MEL-2 melanoma, 0.777 µM; in the assay on SNB-19 CNS, 7.33 µM; in the assay on RPMI-8226 leukemia it was 2.76 µM; with SK-MEL-28 melanoma it was 16.9 µM. The GI50 with HL-60(TB) leukemia was 0.546 µM; in the assay on NCI-H460 lung it was 1.51 µM; with RXF 393 renal, 1.4 µM; with DU-145 prostate, 0.371 µM. Besides, the TGI in the assay on MDA-MB-231 breast is more than 100 µM; in the assay on 786-0 renal it was more than 100 µM; in the assay with SK-MEL-2 melanoma, 23.8 µM; in the assay with SNB-19 CNS it was more than 100 µM; in the assay with RPMI-8226 leukemia, more than 100 µM; in the assay on SK-MEL-28 melanoma it was more than 100 µM. For the same compound, the TGI is more than 100 µM in the assay with HL-60(TB) leukemia, more than 40.6 µM in the assay on NCI-H460 lung, 13.6 µM in the assay with RXF 393 renal and more than 78.8 µM in the assay with DU-145 prostate.

For `O=S1(=O)NC2CCC3NS(=O)(=O)NC4CCC(N1)N4S(=O)(=O)N23` (stereo not drawn), the TGI with MDA-MB-231 breast, with 786-0 renal, with SK-MEL-2 melanoma, in the assay with SNB-19 CNS, in the assay on RPMI-8226 leukemia and in the assay with SK-MEL-28 melanoma was more than 100 µM throughout. The TGI with HL-60(TB) leukemia, with NCI-H460 lung, in the assay with RXF 393 renal and in the assay on DU-145 prostate was more than 100 µM each time.

`CCC(CCC(C)C1CCC2C3CC=C4CC(OC5OC(CO)C(O)C(O)C5O)CCC4(C)C3CCC12C)C(C)C` (stereo not drawn): the TGI with MDA-MB-231 breast, in the assay on 786-0 renal, in the assay with SK-MEL-2 melanoma, in the assay with SNB-19 CNS, in the assay on RPMI-8226 leukemia and in the assay on SK-MEL-28 melanoma was more than 100 µM each time. Moreover, the TGI with HL-60(TB) leukemia, in the assay with NCI-H460 lung, in the assay on RXF 393 renal and in the assay on DU-145 prostate was more than 100 µM throughout.

In the case of `COc1cc2oc(-c3ccc(O)cc3O)c(CC=C(C)C)c(=O)c2c(O)c1/C=C/C(C)C`, the TGI was 6.17 µM in the assay with MDA-MB-231 breast; 4.53 µM with 786-0 renal; 17.9 µM with SK-MEL-2 melanoma; 9.42 µM in the assay on SNB-19 CNS; 8.73 µM with RPMI-8226 leukemia; 13.9 µM with SK-MEL-28 melanoma. In addition, the TGI in the assay with HL-60(TB) leukemia is 5.59 µM; with NCI-H460 lung, 14.5 µM; with RXF 393 renal, 4.61 µM; in the assay with DU-145 prostate, 11 µM.

Turning to `C[C@]12CC[C@H]3[C@@H](CCC4=CC(=O)CC[C@@]43C)[C@@H]1CC[C@@H]2C(=O)COS(=O)(=O)c1ccc(Br)cc1`, the TGI with MDA-MB-231 breast is 17.7 µM; with 786-0 renal, more than 22.4 µM; in the assay on SK-MEL-2 melanoma, 22.3 µM; in the assay with SNB-19 CNS, 44.6 µM; with RPMI-8226 leukemia it was 12 µM; in the assay with SK-MEL-28 melanoma, 43.5 µM. Further, the TGI in the assay with HL-60(TB) leukemia was 21.9 µM; with NCI-H460 lung, 22.2 µM; with RXF 393 renal, more than 50.8 µM; in the assay on DU-145 prostate, 34.4 µM.

On to `Clc1cc2c(nn1)Nc1ccccc1S2`, for which the GI50 in the assay with MDA-MB-231 breast, with 786-0 renal, with SK-MEL-2 melanoma, with SNB-19 CNS, with RPMI-8226 leukemia and with SK-MEL-28 melanoma was more than 100 µM each time. Besides, the GI50 in the assay with HL-60(TB) leukemia, in the assay with NCI-H460 lung, in the assay with RXF 393 renal and in the assay with DU-145 prostate was more than 100 µM each time. The TGI with MDA-MB-231 breast, in the assay on 786-0 renal, in the assay on SK-MEL-2 melanoma, in the assay with SNB-19 CNS, in the assay on RPMI-8226 leukemia and with SK-MEL-28 melanoma was more than 100 µM in each case. Besides, the TGI with HL-60(TB) leukemia, in the assay with NCI-H460 lung, in the assay with RXF 393 renal and in the assay on DU-145 prostate was more than 100 µM throughout.

With `CNc1cc2nc3cc(NC)c(C)cc3cc2cc1C`, the GI50 is 1.08 µM in the assay on MDA-MB-231 breast; 0.683 µM in the assay on 786-0 renal; 6 µM in the assay on SK-MEL-2 melanoma; 1.48 µM in the assay on SNB-19 CNS; 1.04 µM in the assay on RPMI-8226 leukemia; 5.91 µM in the assay on SK-MEL-28 melanoma. In addition, the GI50 is 2.58 µM in the assay with HL-60(TB) leukemia, 0.41 µM in the assay on NCI-H460 lung, 1.09 µM in the assay with RXF 393 renal and 0.861 µM with DU-145 prostate. The TGI in the assay on MDA-MB-231 breast is 2.88 µM; in the assay with 786-0 renal, 2.05 µM; in the assay on SK-MEL-2 melanoma it was 26.2 µM; with SNB-19 CNS, 16.6 µM; in the assay with RPMI-8226 leukemia, 5.12 µM; in the assay with SK-MEL-28 melanoma, 20.5 µM. Moreover, the TGI with HL-60(TB) leukemia was 15.9 µM; in the assay with NCI-H460 lung, 1.66 µM; with RXF 393 renal, 2.37 µM; in the assay on DU-145 prostate it was 11.5 µM.

Consider `CC(C)(CCN=C(N)Nc1ccccn1)c1ccc(C(F)(F)F)cc1`, for which the GI50 is 14.9 µM in the assay with MDA-MB-231 breast; 13.3 µM in the assay with 786-0 renal; 16.9 µM in the assay with SK-MEL-2 melanoma; 16.9 µM with SNB-19 CNS; 6.58 µM in the assay with RPMI-8226 leukemia; 15.8 µM in the assay on SK-MEL-28 melanoma. The GI50 in the assay on HL-60(TB) leukemia is 17.1 µM; with NCI-H460 lung, 15.3 µM; with RXF 393 renal, 14.6 µM; with DU-145 prostate, 16.2 µM. Besides, the TGI in the assay on MDA-MB-231 breast amounted to 29.8 µM; in the assay on 786-0 renal, 28.2 µM; with SK-MEL-2 melanoma, 32.9 µM; in the assay with SNB-19 CNS it was 33.1 µM; with RPMI-8226 leukemia, 26.7 µM; with SK-MEL-28 melanoma, 30.6 µM. Also, the TGI in the assay with HL-60(TB) leukemia worked out at 36 µM; in the assay on NCI-H460 lung, 31.2 µM; with RXF 393 renal it was 29.6 µM; with DU-145 prostate, 31.8 µM.

Consider `C=C1COC(O)(C2OCOC(C3CC(=O)NC(=O)C3)C2O)C1C` (stereo not drawn), for which the TGI was 0.0328 µM with MDA-MB-231 breast; 0.0532 µM in the assay with 786-0 renal; 0.00927 µM and 0.0446 µM in the assay with SK-MEL-2 melanoma; 0.0063 µM and 0.0127 µM and 0.0451 µM with RPMI-8226 leukemia; 0.0377 µM in the assay with SK-MEL-28 melanoma; 0.0123 µM in the assay with HL-60(TB) leukemia. In addition, the TGI was 0.18 µM and 0.172 µM in the assay with NCI-H460 lung; 0.00759 µM and 0.0177 µM and 0.0104 µM with RXF 393 renal; 0.0616 µM with DU-145 prostate. For the same compound, the GI50 in the assay on 786-0 renal was 0.00362 µM; in the assay with SK-MEL-2 melanoma it was 0.00243 µM; with SNB-19 CNS, 0.0036 µM; in the assay on RPMI-8226 leukemia, 0.00236 µM; in the assay with SK-MEL-28 melanoma it was 0.00222 µM; in the assay on HL-60(TB) leukemia, 0.00217 µM. Moreover, the GI50 with NCI-H460 lung was 0.0107 µM; with RXF 393 renal, 0.00134 µM; with DU-145 prostate it was 0.0125 µM.
